Numbers after ± are expanded uncertainties.
Test: xn = mol fraction of the nth substance listed
Conditions: Liquid, Vibrating tube method

CCCCCCCC [octane] + CCCCCC
Conditions	mass density [kg/m3]
313.14 K, 18000 kPa, x2 = 0.1654	697.47 ± 0.39
313.14 K, 18000 kPa, x2 = 0.5749	683.06 ± 0.41
313.14 K, 18000 kPa, x2 = 0.7995	672.32 ± 0.42
313.14 K, 18000 kPa, x2 = 0.9308	665.28 ± 0.43
313.14 K, 19000 kPa, x2 = 0.1654	698.27 ± 0.4
313.14 K, 19000 kPa, x2 = 0.5749	683.89 ± 0.42
313.14 K, 19000 kPa, x2 = 0.7995	673.21 ± 0.43
313.14 K, 19000 kPa, x2 = 0.9308	666.2 ± 0.44
313.14 K, 20000 kPa, x2 = 0.1654	699.05 ± 0.41
313.14 K, 20000 kPa, x2 = 0.5749	684.72 ± 0.43
313.14 K, 20000 kPa, x2 = 0.7995	674.07 ± 0.44
313.14 K, 20000 kPa, x2 = 0.9308	667.1 ± 0.45
313.14 K, 21000 kPa, x2 = 0.1654	699.81 ± 0.42
313.14 K, 21000 kPa, x2 = 0.5749	685.52 ± 0.44
313.14 K, 21000 kPa, x2 = 0.7995	674.92 ± 0.45
313.14 K, 21000 kPa, x2 = 0.9308	667.97 ± 0.46
313.14 K, 22000 kPa, x2 = 0.1654	700.55 ± 0.43
313.14 K, 22000 kPa, x2 = 0.5749	686.32 ± 0.45
313.14 K, 22000 kPa, x2 = 0.7995	675.74 ± 0.46
313.14 K, 22000 kPa, x2 = 0.9308	668.8 ± 0.47
313.14 K, 23000 kPa, x2 = 0.1654	701.28 ± 0.44
313.14 K, 23000 kPa, x2 = 0.5749	687.1 ± 0.46
313.14 K, 23000 kPa, x2 = 0.7995	676.52 ± 0.47
313.14 K, 23000 kPa, x2 = 0.9308	669.6 ± 0.48
313.14 K, 24000 kPa, x2 = 0.1654	701.98 ± 0.44
313.14 K, 24000 kPa, x2 = 0.5749	687.85 ± 0.46
313.14 K, 24000 kPa, x2 = 0.7995	677.27 ± 0.48
313.14 K, 24000 kPa, x2 = 0.9308	670.36 ± 0.49
313.14 K, 25000 kPa, x2 = 0.1654	702.7 ± 0.45
313.14 K, 25000 kPa, x2 = 0.5749	688.59 ± 0.47
313.14 K, 25000 kPa, x2 = 0.7995	677.99 ± 0.49
313.14 K, 25000 kPa, x2 = 0.9308	671.1 ± 0.5
323.06 K, 1000 kPa, x2 = 0.5749	658.22 ± 0.27
323.06 K, 2000 kPa, x2 = 0.5749	659.25 ± 0.28
323.06 K, 3000 kPa, x2 = 0.5749	660.31 ± 0.28
323.06 K, 4000 kPa, x2 = 0.5749	661.34 ± 0.29
323.06 K, 5000 kPa, x2 = 0.5749	662.42 ± 0.3
323.06 K, 6000 kPa, x2 = 0.5749	663.46 ± 0.31
323.06 K, 7000 kPa, x2 = 0.5749	664.53 ± 0.32
323.06 K, 8000 kPa, x2 = 0.5749	665.61 ± 0.33
323.06 K, 9000 kPa, x2 = 0.5749	666.67 ± 0.33
323.06 K, 10000 kPa, x2 = 0.5749	667.73 ± 0.34
323.06 K, 11000 kPa, x2 = 0.5749	668.78 ± 0.35
323.06 K, 12000 kPa, x2 = 0.5749	669.81 ± 0.36
323.06 K, 13000 kPa, x2 = 0.5749	670.83 ± 0.37
323.06 K, 14000 kPa, x2 = 0.5749	671.84 ± 0.38
323.06 K, 15000 kPa, x2 = 0.5749	672.81 ± 0.39
323.06 K, 16000 kPa, x2 = 0.5749	673.78 ± 0.4
323.06 K, 17000 kPa, x2 = 0.5749	674.72 ± 0.41
323.06 K, 18000 kPa, x2 = 0.5749	675.63 ± 0.42
323.06 K, 19000 kPa, x2 = 0.5749	676.52 ± 0.43
323.06 K, 20000 kPa, x2 = 0.5749	677.38 ± 0.43
323.06 K, 21000 kPa, x2 = 0.5749	678.25 ± 0.44
323.06 K, 22000 kPa, x2 = 0.5749	679.1 ± 0.45
323.06 K, 23000 kPa, x2 = 0.5749	679.9 ± 0.46
323.06 K, 24000 kPa, x2 = 0.5749	680.71 ± 0.47
323.06 K, 25000 kPa, x2 = 0.5749	681.47 ± 0.48
323.07 K, 1000 kPa, x2 = 0.2199	672.17 ± 0.26
323.07 K, 2000 kPa, x2 = 0.2199	673.14 ± 0.27
323.07 K, 3000 kPa, x2 = 0.2199	674.14 ± 0.28
323.07 K, 4000 kPa, x2 = 0.2199	675.13 ± 0.28
323.07 K, 5000 kPa, x2 = 0.2199	676.14 ± 0.29
323.07 K, 6000 kPa, x2 = 0.2199	677.12 ± 0.3
323.07 K, 7000 kPa, x2 = 0.2199	678.12 ± 0.31
323.07 K, 8000 kPa, x2 = 0.2199	679.13 ± 0.32
323.07 K, 9000 kPa, x2 = 0.2199	680.12 ± 0.32
323.07 K, 10000 kPa, x2 = 0.2199	681.12 ± 0.33
323.07 K, 11000 kPa, x2 = 0.2199	682.09 ± 0.34
323.07 K, 12000 kPa, x2 = 0.2199	683.06 ± 0.35
323.07 K, 13000 kPa, x2 = 0.2199	684.02 ± 0.36
323.07 K, 14000 kPa, x2 = 0.2199	684.97 ± 0.37
323.07 K, 15000 kPa, x2 = 0.2199	685.89 ± 0.38
323.07 K, 16000 kPa, x2 = 0.2199	686.79 ± 0.38
323.07 K, 17000 kPa, x2 = 0.2199	687.68 ± 0.39
323.07 K, 18000 kPa, x2 = 0.2199	688.54 ± 0.4
323.07 K, 19000 kPa, x2 = 0.2199	689.38 ± 0.41
323.07 K, 20000 kPa, x2 = 0.2199	690.21 ± 0.42
323.07 K, 21000 kPa, x2 = 0.2199	691.03 ± 0.43
323.07 K, 22000 kPa, x2 = 0.2199	691.83 ± 0.44
323.07 K, 23000 kPa, x2 = 0.2199	692.58 ± 0.45
323.07 K, 24000 kPa, x2 = 0.2199	693.35 ± 0.45
323.07 K, 25000 kPa, x2 = 0.2199	694.1 ± 0.46
323.08 K, 1000 kPa, x2 = 0.1654	674.04 ± 0.26
323.08 K, 2000 kPa, x2 = 0.1654	675.02 ± 0.27
323.08 K, 3000 kPa, x2 = 0.1654	676 ± 0.28
323.08 K, 4000 kPa, x2 = 0.1654	676.97 ± 0.28
323.08 K, 5000 kPa, x2 = 0.1654	677.97 ± 0.29
323.08 K, 6000 kPa, x2 = 0.1654	678.97 ± 0.3
323.08 K, 7000 kPa, x2 = 0.1654	679.95 ± 0.31
323.08 K, 8000 kPa, x2 = 0.1654	680.93 ± 0.31
323.08 K, 9000 kPa, x2 = 0.1654	681.93 ± 0.32
323.08 K, 10000 kPa, x2 = 0.1654	682.9 ± 0.33
323.08 K, 11000 kPa, x2 = 0.1654	683.88 ± 0.34
323.08 K, 12000 kPa, x2 = 0.1654	684.84 ± 0.35
